This is an account of results in paper PMC4635352, “Preventive effect of oral goshajinkigan on chronic oxaliplatin-induced hypoesthesia in rats” (Scientific Reports, 2015).

Data set [1] relates to neuro2A cells. The conditions noted are these: for oxaliplatin-induced ROS generation: co-administration with oxaliplatin, 100 μM (first screening), 1–100 μM (second screening), 1 h; for oxaliplatin-induced ROS generation, effect of antioxidants: Supplementary Figure S1; for ROS generation in neuro2A cells by metabolites of oxaliplatin: data not shown.
The nature of data set [2]: pharmacokinetic study of GJG-derived compounds in rat plasma (LC-MS/MS). The class given is in vivo. The conditions noted are these: for Cmax / Tmax: rat plasma after oral GJG 1.0 g/kg, mean ± S.D.; for time for which the high plasma concentration was maintained: after oral administration of GJG; for time at which maximum plasma concentration (Cmax) was reached: after oral administration of GJG 1.0 g/kg. How it is done:
Rats cannulated in the jugular vein were fasted for more than 16 hours with access to water. At the time of 0.083, 0.25, 0.5, 1, 2, 4 and 8 hours after oral administration of GJG (1.0 g/10 mL/kg), blood samples were collected with a heparin-coated syringe and centrifuged at 3000 rpm for 15 minutes at 4 °C. The plasma samples were pretreated by precipitating plasma protein with an organic solvent or by solid-phase extraction and injected into the LC-MS/MS system for analysis. Components of GJG in plasma were measured by a QTRAP®5500 system (AB SCIEX, Tokyo, Japan) equipped with an Agilent 1260 HPLC system (binary pump, online degasser, auto plate-sampler and column oven; Agilent Technologies, Tokyo, Japan). The lower limits for quantification were 0.001 ng/mL for benzoylaconine, benzoylmesaconine, benzoylhypaconine; 0.002 ng/mL for 14-anisoylaconine; 0.2 ng/mL for loganin and morroniside; 0.5 ng/mL for paeoniflorin; and 5 ng/mL for catalpol. Cmax and time to reach maximum plasma concentration (Tmax) as pharmacokinetic parameters were calculated based on the plasma concentration of each compound by Phoenix WinNonlin (version 6.3; Certara L.P., St. Louis, MO, USA).

Data set [3] relates to SHSY-5Y cells. Set-up: method as in PMID 21241762, PMID 19379729, PMID 24263411. Particulars: cited from earlier work.

Like-named read-outs stand apart in the source and are kept apart here.

On to `CCN1C[C@]2(COC)[C@H](O)C[C@H](OC)C34C1C([C@H](OC)[C@@H]32)[C@]1(O)[C@@H]2[C@H]4C[C@@](O)([C@@H]2OC(=O)c2ccc(OC)cc2)[C@@H](OC)[C@@H]1O` [14-Anisoylaconine, 14-anisoylaconine], for which the “oxaliplatin-induced ROS generation” value in data set [1] is recorded as “significantly decreased”. In data set [2], the Cmax is recorded as 0.009 ± 0.000 ng/mL and the time to peak (Tmax) was 18.6 ± 7.8 min.
For the compound `CCN1C[C@]2(COC)[C@H](O)C[C@H](OC)[C@@]34[C@@H]5C[C@@]6(O)[C@H](OC(=O)c7ccccc7)[C@@H]5[C@@](O)([C@@H]([C@H](OC)[C@H]23)[C@@H]14)[C@@H](O)[C@@H]6OC` [Benzoylaconine, benzoylaconine], in data set [2], the maximum concentration (Cmax) was found to be 0.012 ± 0.002 ng/mL and the time to peak (Tmax) turned out to be 30 ± 0 min.
Take `COC[C@@]12CC[C@H](OC)[C@]34C([C@H]([C@H](OC)[C@H]13)[C@]1(O)[C@H]3[C@@H](OC(=O)c5ccccc5)[C@](O)(C[C@H]34)[C@@H](OC)[C@@H]1O)N(C)C2` [Benzoylhypaconine, benzoylhypaconine]: in data set [2], the peak concentration (Cmax) was determined as 0.013 ± 0.001 ng/mL and the Tmax turned out to be 30 ± 0 min.
As to `COC[C@]12CN(C)C3[C@@H]4[C@H](OC)[C@H]1[C@@]3([C@@H](OC)C[C@H]2O)[C@@H]1C[C@@]2(O)[C@H](OC(=O)c3ccccc3)[C@@H]1[C@]4(O)[C@@H](O)[C@@H]2OC` [Benzoylmesaconine, benzoylmesaconine], in data set [2], the Cmax is 0.041 ± 0.006 ng/mL and the Tmax is 26.4 ± 7.8 min.
Turning to `OC[C@H]1O[C@@H](O[C@@H]2OC=C[C@H]3[C@H](O)[C@@H]4O[C@]4(CO)[C@@H]23)[C@H](O)[C@@H](O)[C@@H]1O` [Catalpol, catalpol], in data set [2], the “time for which the high plasma concentration was maintained” value was 4 h and the “time at which maximum plasma concentration (Cmax) was reached” value (shortened to “time … (Cmax) was reached”) turned out to be 60 min. Besides, in data set [2] (read-out: Cmax), the Cmax came out at 282 ± 119 ng/mL. Also, in data set [2] (read-out: Tmax), the Tmax is 60 ± 33 min.
On to `COC(=O)C1=CO[C@@H](O[C@@H]2O[C@H](CO)[C@@H](O)[C@H](O)[C@H]2O)[C@@H]2[C@@H](C)[C@@H](O)C[C@H]12` [Loganin, loganin], for which the “ROS production induced by H2O2 or amyloid β 25–35 peptide” value in data set [3] is “attenuate ROS production”. Besides, the “oxaliplatin-induced ROS generation” value in data set [1] is “significantly decreased”. Further, in data set [2], the “time for which the high plasma concentration was maintained” value was 4 h and the “time … (Cmax) was reached” value was determined as 30 min. In data set [2] (read-out: Cmax), the highest concentration (Cmax) was 43.7 ± 25.7 ng/mL. Further, the time of peak concentration (Tmax) in data set [2] (read-out: Tmax) was found to be 34.8 ± 12 min.
On to `COC(=O)C1=CO[C@@H](O[C@@H]2O[C@H](CO)[C@@H](O)[C@H](O)[C@H]2O)[C@@H]2[C@H](C)O[C@@H](O)C[C@H]12` [Morroniside, morroniside], for which, in data set [3], the “ROS production induced by H2O2 or amyloid β 25–35 peptide” value was “attenuate ROS production”. Further, the “rank of anti-ROS action among active components” value in data set [1] (among LO, MO, PF and 14-AA) is given as “strongest action”. Further, the “oxaliplatin-induced ROS generation” value in data set [1] is “significantly decreased”. For the same compound, in data set [2], the “time for which the high plasma concentration was maintained” value turned out to be 4 h and the “time … (Cmax) was reached” value amounted to 30 min. Besides, in data set [2] (read-out: Cmax), the Cmax was 53.7 ± 26.9 ng/mL. Also, in data set [2] (read-out: Tmax), the Tmax is 40.2 ± 15.6 min.
In the case of `CC(=O)N[C@@H](CS)C(=O)O` [N-acetyl cysteine], the “oxaliplatin-induced ROS generation, effect of antioxidants” value in data set [1] is “inhibited”.
Regarding `[Cl][Pt+2][Cl].[NH-]C1CCCCC1[NH-]` (stereo not drawn) [Pt(dach)Cl2, dichloro (1,2-diaminocyclohexane) platinum], the “ROS generation in neuro2A cells by metabolites of oxaliplatin” value in data set [1] is “increased ROS generation”.
In the case of `N[C@@H](CCC(=O)N[C@@H](CS)C(=O)NCC(=O)O)C(=O)O` [glutathione], the “oxaliplatin-induced ROS generation, effect of antioxidants” value in data set [1] was “inhibited”.
Turning to `O=C(O)C(=O)O` [oxalate], the “ROS generation in neuro2A cells by metabolites of oxaliplatin” value in data set [1] was “did not”.
